This note sets out measurements from ChEMBL document CHEMBL5523705, “High affinity and low PARP-trapping benzimidazole derivatives as a potential warhead for PARP1 degraders” (Eur J Med Chem, 2024).

Bounds are passed on as bounds.

Series [1] concerns the target Poly [ADP-ribose] polymerase 1 (Homo sapiens, UniProt P09874). In words: Inhibition of PARP1 (unknown origin) in presence of DNA and substrate by chemiluminescent assay.
Series [2] deals with MDA-MB-436. As to the kind of experiment: Inhibition of cell proliferation in human MDA-MB-436 cells assessed as PARP trapping effect. The series is classed as functional, cell-based.
The test system of series [3] is MCF7. In words: Inhibition of cell proliferation in human MCF7 cells. It counts as functional, cell-based.
The nature of series [4]: Inhibition of cell proliferation in HUVECs. To be noted: human, HUVEC cells. It counts as toxicity, cell-based.

Sequence of Poly [ADP-ribose] polymerase 1 (P09874 whole entry): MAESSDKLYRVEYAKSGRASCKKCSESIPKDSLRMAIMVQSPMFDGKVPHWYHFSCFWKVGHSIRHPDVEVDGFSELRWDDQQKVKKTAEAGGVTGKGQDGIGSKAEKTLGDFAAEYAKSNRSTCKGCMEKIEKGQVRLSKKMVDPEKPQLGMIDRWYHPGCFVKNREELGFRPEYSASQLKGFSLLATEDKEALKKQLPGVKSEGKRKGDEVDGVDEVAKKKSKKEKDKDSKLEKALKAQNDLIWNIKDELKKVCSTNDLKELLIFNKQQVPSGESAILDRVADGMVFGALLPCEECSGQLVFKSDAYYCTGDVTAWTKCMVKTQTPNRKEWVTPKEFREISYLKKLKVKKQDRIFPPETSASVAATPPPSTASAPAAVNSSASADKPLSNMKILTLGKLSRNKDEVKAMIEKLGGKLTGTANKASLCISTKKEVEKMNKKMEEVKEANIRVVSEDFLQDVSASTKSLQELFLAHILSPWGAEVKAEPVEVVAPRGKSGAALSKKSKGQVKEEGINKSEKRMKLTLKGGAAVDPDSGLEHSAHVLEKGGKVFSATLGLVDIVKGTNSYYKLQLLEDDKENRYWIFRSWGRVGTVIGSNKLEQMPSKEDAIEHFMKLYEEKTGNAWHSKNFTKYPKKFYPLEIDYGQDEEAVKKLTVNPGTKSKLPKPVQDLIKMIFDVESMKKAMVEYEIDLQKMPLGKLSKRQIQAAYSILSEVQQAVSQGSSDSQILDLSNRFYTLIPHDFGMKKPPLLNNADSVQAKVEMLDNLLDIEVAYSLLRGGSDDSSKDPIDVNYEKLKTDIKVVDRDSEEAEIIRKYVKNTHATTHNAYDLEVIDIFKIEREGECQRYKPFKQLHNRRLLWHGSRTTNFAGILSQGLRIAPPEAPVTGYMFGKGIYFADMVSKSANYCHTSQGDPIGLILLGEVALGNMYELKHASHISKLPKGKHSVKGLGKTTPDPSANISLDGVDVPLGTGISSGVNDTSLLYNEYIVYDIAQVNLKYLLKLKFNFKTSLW

What is called IC50 is the point on the concentration scale where inhibition reaches its midpoint. Take `NC(=O)c1cccc2[nH]c(-c3ccc(C(=O)NC4CCN(c5ccco5)C4)c(F)c3)nc12` (stereo unspecified): the IC50 in series [1] was 0.009 µM; in series [2] (Homo sapiens, MDA-MB-436), 20.5 µM; in series [3] (Homo sapiens, MCF7), above 100 µM; in series [4], 67.1 µM.
In the same order, the values of `Cn1cccc1C(=O)N1CCN(C(=O)c2ccc(-c3nc4c(C(N)=O)cccc4[nH]3)cc2)CC1` are 0.0456 µM, above 100 µM, above 100 µM and above 100 µM.
The like results for `NC(=O)c1cccc2[nH]c(-c3ccc(C(=O)N4CCN(C(=O)c5ccccn5)CC4)cc3)nc12` were, in that order, 0.0506 µM, above 100 µM, above 100 µM and above 100 µM.
For the compound `CC1CN(C(=O)c2ccc(-c3nc4c(C(N)=O)cccc4[nH]3)cc2F)CCN1C(=O)c1ccc(Cl)o1` (stereo unspecified), the IC50 was 0.00685 µM in series [1]; 21.8 µM in series [2] (Homo sapiens, MDA-MB-436); above 100 µM in series [3] (Homo sapiens, MCF7); 47.8 µM in series [4].
`NC(=O)c1cccc2[nH]c(-c3ccc(C(=O)N4CCN(C(=O)c5csc(Br)n5)CC4)cc3)nc12`: the IC50 was 0.00462 µM in series [1]; above 100 µM in series [2] (Homo sapiens, MDA-MB-436); above 100 µM in series [3] (Homo sapiens, MCF7); above 100 µM in series [4].
Regarding `O=C(c1cc(Cc2n[nH]c(=O)c3ccccc23)ccc1F)N1CCN(C(=O)C2CC2)CC1` [OLAPARIB], the IC50 in series [2] (Homo sapiens, MDA-MB-436) is 23.9 µM; in series [3] (Homo sapiens, MCF7) it was above 100 µM; in series [4], above 100 µM.
Regarding `NC(=O)c1cccc2[nH]c(-c3ccc(C(=O)N4CCN(C(=O)c5ccco5)CC4)c(F)c3)nc12`, the IC50 was 0.0324 µM in series [1]; above 100 µM in series [2] (Homo sapiens, MDA-MB-436); above 100 µM in series [3] (Homo sapiens, MCF7); above 100 µM in series [4].
`Cc1ccc(C(=O)N2CCN(C(=O)c3ccc(-c4nc5c(C(N)=O)cccc5[nH]4)cc3F)CC2C)o1` (stereo unspecified): the half-inhibitory concentration (IC50) in series [1] is 0.00572 µM; in series [2] (Homo sapiens, MDA-MB-436) it was 17.3 µM; in series [3] (Homo sapiens, MCF7), above 100 µM; in series [4] it was above 100 µM.
With `Cn1cncc1C(=O)N1CCN(C(=O)c2ccc(-c3nc4c(C(N)=O)cccc4[nH]3)cc2)CC1`, the half-inhibitory concentration (IC50) in series [1] was 0.0846 µM; in series [2] (Homo sapiens, MDA-MB-436), above 100 µM; in series [3] (Homo sapiens, MCF7), above 100 µM; in series [4], above 100 µM.
As to `C[C@]1(c2nc3c(C(N)=O)cccc3[nH]2)CCCN1` [VELIPARIB], the IC50 in series [2] (mda-mb-436), in series [3] (mcf7) and in series [4] was above 100 µM throughout.
Take `NC(=O)c1cccc2[nH]c(-c3ccc(C(=O)N4CCN(C(=O)c5ccco5)CC4)cc3)nc12`: the IC50 was 0.0541 µM in series [1]; above 100 µM in series [2] (Homo sapiens, MDA-MB-436); above 100 µM in series [3] (Homo sapiens, MCF7); above 100 µM in series [4].
Turning to `NC(=O)c1cccc2[nH]c(-c3ccc(C(=O)NC4CCN(c5ccc(Cl)o5)C4)c(F)c3)nc12` (stereo unspecified), the IC50 in series [1] was 0.00438 µM; in series [2] (Homo sapiens, MDA-MB-436) it was 7.6 µM; in series [3] (Homo sapiens, MCF7), above 100 µM; in series [4], above 100 µM.
Take `CC1CN(C(=O)c2ccc(-c3nc4c(C(N)=O)cccc4[nH]3)cc2F)CCN1C(=O)c1ccc(Br)o1` (stereo unspecified): the 50% inhibitory concentration (IC50) in series [2] (Homo sapiens, MDA-MB-436) is 14.9 µM; in series [3] (Homo sapiens, MCF7), above 100 µM; in series [4], 52.6 µM.
The like results for `NC(=O)c1cccc2[nH]c(-c3ccc(C(=O)NC4CCN(c5ccc(Br)o5)C4)c(F)c3)nc12` (stereo unspecified) were, in that order, 16.4 µM, above 100 µM and above 100 µM.
As for `Cc1ccoc1C(=O)N1CCN(C(=O)c2ccc(-c3nc4c(C(N)=O)cccc4[nH]3)cc2F)CC1C` (stereo unspecified), the IC50 was 0.00518 µM in series [1]; 9.09 µM in series [2] (Homo sapiens, MDA-MB-436); above 100 µM in series [3] (Homo sapiens, MCF7); 85.3 µM in series [4].
